Laboratory results from patent US20100113550A1, “New Crystal Forms” (BIAL - PORTELA AND CA, S.A., priority 2006, published 2010).
Entries after “also recorded” stand apart in the source; their conditions may differ. Read-outs that look alike come from different tables or passages of the source.

Key:
Assay type in all cases: physicochemical
[1] = RH stability: storage at controlled relative humidity or drying, checked by XRPD and for deliquescence; conditions: high relative humidities, long periods of time
Excerpt: Form A samples were stored at lower relative humidities of approximately 9-11, 23 and 32% RH and analyzed by XRPD and Karl-Fischer titration analysis after four weeks (Tables 30 and 31). The samples appeared to be Form A by XRPD. […] Note that the water content in the samples at 23 and 32% RH was slightly higher compared to the initial batch of Form A.
Form X samples were stored at relative humidities of approximately 43, 75 and 90% RH and analyzed by XRPD and Karl-Fischer titration analysis after five weeks (Tables 34 and 35).

[2] = Interconversion studies of Forms A and C (slurries, XRPD); conditions: interconversion in ethanol and acetone:water 99:1
Description: A slurry of compound 1, Form A, was prepared in a given solvent and loaded on an orbit shaker at either ambient or elevated temperature for at least 1 day. The liquid phase of the slurry was drawn off with a pipette and filtered through a 0.2-μm filter. A slurry containing compound 1 forms A and C was prepared using the filtered liquid phase from the Form A slurry. The mixture was then loaded on an orbit shaker in a sealed vial at either ambient or elevated temperature for 1 or 7 days. The solids were isolated by vacuum filtration or by drawing the liquid phase off with a pipette and allowing the solids to air dry at ambient conditions prior to analysis. The resulting Forms were characterised by XRPD.

[3] = Approximate solubilities (solvent added until a solution forms); conditions: for solubility: read-out: Solubility (approximate)
Excerpt: Approximate solubilities of compound 1, Form A in aqueous mixtures containing high concentrations of organic solvents are given in Table 1. [table]

[4] = RH stability: storage at controlled relative humidity or drying, checked by XRPD and for deliquescence

Compound: Cl.NCCc1c[nH]c(=S)n1[C@H]1COc2c(F)cc(F)cc2C1 [Form C, (R)-5-(2-Aminoethyl)-1-(6,8-difluorochroman-3-yl)-1,3-dihydroimidazole-2-thione hydrochloride]
- Stability under high relative humidities [1]: remain stable
- Relative thermodynamic stability of the forms [2]: more thermodynamically stable than Form A
- solubility ([3]; 1,4-dioxane, organic solvent or mixture, 1,4-dioxane): < 1000 µg/mL
- solubility ([3]; 1,4-dioxane:water 9:1, organic solvent or mixture, 1,4-dioxane:water 9:1): > 22000 µg/mL
- Solubility (approximate) ([3]; 1,4-dioxane:water 99:1, hydrochloride): <22 mg/mL
- Solubility (approximate) ([3]; 2,2,2-trifluoroethanol, hydrochloride): 1.7 mg/mL
- solubility ([3]; THF:water 9:1, organic solvent or mixture, THF:water 9:1): > 23000 µg/mL
- solubility ([3]; THF:water 99:1, organic solvent or mixture, THF:water 99:1): < 24000 µg/mL
- Solubility (approximate) ([3]; acetone:water 90:10 (9:1)): >23 mg/mL
- Solubility (approximate) ([3]; acetone:water 99:1, hydrochloride): <24 mg/mL
- Solubility (approximate) ([3]; acetone, hydrochloride): <1 mg/mL
- solubility ([3]; acetonitrile, organic solvent or mixture, acetonitrile): < 1000 µg/mL
- solubility ([3]; acetonitrile:water 4:1, organic solvent or mixture, acetonitrile:water 4:1): > 40000 µg/mL
- Solubility (approximate) ([3]; acetonitrile:water 90:10 (9:1), hydrochloride): <25 mg/mL
- Solubility compared with the other forms (in words) ([3]; comparison between forms): lower compared to the solubilities of Form A
- solubility ([3]; dichloromethane, organic solvent or mixture, dichloromethane): < 1000 µg/mL
- solubility ([3]; diethyl ether, organic solvent or mixture, diethyl ether): < 1000 µg/mL
- Solubility (approximate) ([3]; ethanol:water 90:10 (9:1), hydrochloride): <22 mg/mL
- Solubility (approximate) ([3]; ethanol, hydrochloride): 2 mg/mL
- solubility ([3]; ethyl acetate, organic solvent or mixture, ethyl acetate): < 1000 µg/mL
- solubility ([3]; hexafluoro isopropanol, organic solvent or mixture, hexafluoro isopropanol): 1000 µg/mL
- solubility ([3]; hexane, organic solvent or mixture, hexane): < 1000 µg/mL
- Solubility (approximate) ([3]; iso-propanol, hydrochloride): <1 mg/mL
- Solubility (approximate) ([3]; methanol, hydrochloride): 21 mg/mL
- Solubility (approximate) ([3]; methyl ethyl ketone, hydrochloride): <1 mg/mL
- solubility ([3]; n-propanol, organic solvent or mixture, n-propanol): < 1000 µg/mL
- Solubility by kind of solvent (in words) ([3]; organic solvents and aqueous mixtures, hydrochloride): poorly soluble in most organic solvents, except in methanol; also recorded: slightly soluble in ethanol, hexafluoroisopropanol, 2,2,2-trifluoroethanol, and some aqueous mixtures
- Solubility (approximate) ([3]; tetrahydrofuran (THF), hydrochloride): <1 mg/mL
- solubility ([3]; toluene, organic solvent or mixture, toluene): < 1000 µg/mL
- solubility ([3]; water): 23000 µg/mL
- Hygroscopicity [4]: non-hygroscopic
- RH stability, XRPD result ([4]; 95% relative humidity, ~2 months): did not change
- Deliquescence ([4]; approximately 65% relative humidity, one week): did not deliquesce
- Deliquescence ([4]; approximately 90% relative humidity, 11 days): did not deliquesce
